Source: patent US8415469B2, “Compounds and methods for kinase modulation, and indications therefor” (Plexxikon Inc., priority 2005, dated 2013)

Key:
Format in all cases: biochemical
Kdr = target: T1, Kdr (Homo sapiens, UniProt P35968); test: Z'-Lyte FRET kinase assay (Invitrogen), Kdr; conditions: read-out: IC50, activity toward kinase Kdr
T1 construct: purchased Invitrogen (assay run by Invitrogen)

Kit = target: T2, Kit (Homo sapiens, UniProt P10721); test: AlphaScreen kinase assay, Kit; conditions: read-out: IC50, activity toward kinase Kit
T2 construct: P1332.N6 BI PTP KIT M552-K948-X COD; His6 (N); made in house; host or cells: E. coli (PTP1B co-expressed)
T2 sequence (P10721 with tags, fused parts or gaps): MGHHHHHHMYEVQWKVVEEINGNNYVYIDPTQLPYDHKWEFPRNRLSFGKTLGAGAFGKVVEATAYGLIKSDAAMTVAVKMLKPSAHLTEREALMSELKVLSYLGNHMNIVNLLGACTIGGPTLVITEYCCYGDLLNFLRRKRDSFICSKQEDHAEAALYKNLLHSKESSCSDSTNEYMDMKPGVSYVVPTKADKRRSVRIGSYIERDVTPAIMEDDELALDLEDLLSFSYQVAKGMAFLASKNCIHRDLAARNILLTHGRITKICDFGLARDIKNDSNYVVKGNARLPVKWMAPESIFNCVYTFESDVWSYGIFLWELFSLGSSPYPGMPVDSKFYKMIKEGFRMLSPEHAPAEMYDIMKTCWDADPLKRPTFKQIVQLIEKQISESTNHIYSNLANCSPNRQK

PKC theta = target: T3, PKC theta (Homo sapiens, UniProt Q04759); test: Z'-Lyte FRET kinase assay (Invitrogen), PKC theta; conditions: read-out: IC50, activity toward kinase PKC theta
T3 construct: purchased Invitrogen (Carlsbad, Calif.), screening service
T3 sequence (Q04759 whole entry): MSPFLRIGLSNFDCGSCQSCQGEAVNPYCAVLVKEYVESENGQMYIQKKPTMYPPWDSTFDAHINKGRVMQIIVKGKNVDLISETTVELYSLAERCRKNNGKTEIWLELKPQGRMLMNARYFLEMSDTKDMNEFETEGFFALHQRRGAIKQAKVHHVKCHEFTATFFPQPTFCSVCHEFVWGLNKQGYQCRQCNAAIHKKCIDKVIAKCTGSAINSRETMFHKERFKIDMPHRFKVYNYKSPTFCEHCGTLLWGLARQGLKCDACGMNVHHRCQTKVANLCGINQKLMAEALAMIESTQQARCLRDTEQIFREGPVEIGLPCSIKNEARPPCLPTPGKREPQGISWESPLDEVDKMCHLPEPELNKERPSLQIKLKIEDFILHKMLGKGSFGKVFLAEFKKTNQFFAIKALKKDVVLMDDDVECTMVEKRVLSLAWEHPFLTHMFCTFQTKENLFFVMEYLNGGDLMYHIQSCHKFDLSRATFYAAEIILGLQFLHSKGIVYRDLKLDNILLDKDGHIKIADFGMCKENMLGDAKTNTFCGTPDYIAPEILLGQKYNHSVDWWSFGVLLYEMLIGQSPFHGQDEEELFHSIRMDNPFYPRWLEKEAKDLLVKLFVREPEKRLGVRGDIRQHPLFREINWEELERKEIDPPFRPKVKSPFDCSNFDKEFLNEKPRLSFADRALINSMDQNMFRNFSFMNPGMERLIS
From the text: The effect of potential modulators of kinase activity can be measured in a variety of different assays known in the art. For example, direct radiometric, indirect FRET or AlphaScreen assays may be used to assess the level of phosphorylation of a substrate in the presence of test compounds in order to determine the inhibitory affect of the compound on the kinase. Invitrogen (Carlsbad, Calif.) uses a FRET based assay for Btk, EGFR, EphB2, Flt3, lrak4, Kdr, MAP2K1, MAPKAPK2, PDGFRB, PKC theta, Stk6 and Yes. For these assays, compounds of the invention were screened by Invitrogen using Z′-Lyte™ kinase assay.
Briefly, the Invitrogen kinase assay involves use of a specific peptide substrate optimized for each kinase, containing a fluorophore at each end that make up the FRET pair. The peptide sensitivity to proteolytic cleavage depends on phosphorylation of the peptide. Non-phosphorylated peptide is cleaved by a protease while peptide phosphorylated by the kinase is not cleaved. Cleavage of the peptide disrupts the FRET between the donor (coumarin) and acceptor (fluorescein) fluorophores, resulting in an increase in the ratio of donor emission to acceptor emission. The emission ratio of coumarin to fluorescein is used to assess the reaction progress. The extent of phosphorylation is determined from the emission ratio, which is low when the kinase is active (phosphorylated peptide is not cleaved, FRET pair connected) or higher for inhibited kinase (non-phosphorylated peptide is cleaved, FRET pair separated). Thus, the assay involves a kinase reaction in the presence of varying concentrations of a given compound, a development reaction with site specific protease, and detection of the fluorescent emission ratio of coumarin and fluorscein. […] Reaction conditions for each kinase are determined to provide optimal reaction times, incubation temperature, kinase and ATP concentrations. Test samples are made up in 1× kinase buffer (50 mM HEPES pH 7.5, 50 mM MgCl2, 5 mM EGTA, 0.05% BRIJ-35) and compound at desired concentration prepared in DMSO such that the final DMSO is 1%. […] Typically, assay plates are prepared to 10 μl final volume per sample, adding 2.5 μl of compound at 4× the desired concentration in 4% DMSO (serial dilution of compound provides concentration curve), 5 μl of the desired kinase mixed with Z′-LYTE™ peptide substrate (2× in 2× kinase buffer, final peptide at 2 μM), and 2.5 μl of 4×ATP solution. All kinase except for MAP2K1 were at 10 μM ATP in the kinase reaction, while MAP2K1 was at 100 μM. Samples are mixed and the kinase reaction is incubated 1 hour at room temperature, after which 5 μl of development solution is added and mixed. After incubation for another 1 hour at room temperature, 5 μl of stop reagent is added to each sample and mixed. The fluorescence signals are measured to determine the emission ratio.

Stk6 = target: T4, Stk6 (Homo sapiens, UniProt O14965); test: Z'-Lyte FRET kinase assay (Invitrogen), Stk6; conditions: read-out: IC50, activity toward kinase Stk6
T4 construct: purchased Invitrogen (Carlsbad, Calif.), screening service
T4 sequence (O14965 1-403): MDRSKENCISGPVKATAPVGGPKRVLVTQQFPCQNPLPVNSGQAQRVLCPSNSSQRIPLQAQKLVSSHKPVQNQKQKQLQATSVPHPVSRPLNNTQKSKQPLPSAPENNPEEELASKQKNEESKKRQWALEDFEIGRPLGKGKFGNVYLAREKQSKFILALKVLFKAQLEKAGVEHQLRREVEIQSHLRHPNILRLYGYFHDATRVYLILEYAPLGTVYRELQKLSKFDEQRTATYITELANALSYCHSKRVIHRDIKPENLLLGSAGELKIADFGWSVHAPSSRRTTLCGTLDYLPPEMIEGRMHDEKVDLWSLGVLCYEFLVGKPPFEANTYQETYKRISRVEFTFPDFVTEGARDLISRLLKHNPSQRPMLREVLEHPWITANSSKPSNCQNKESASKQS

Zap70 = target: T5, Zap70 (Homo sapiens, UniProt P43403); test: AlphaScreen kinase assay, Zap70; conditions: read-out: IC50, activity toward kinase Zap70
T5 construct: P1868.pFastBac1 ZAP70 D327-G606 HIS, WT; His7 (HHHHHHH) (C); made in house
T5 sequence (P43403 with tags, fused parts or gaps): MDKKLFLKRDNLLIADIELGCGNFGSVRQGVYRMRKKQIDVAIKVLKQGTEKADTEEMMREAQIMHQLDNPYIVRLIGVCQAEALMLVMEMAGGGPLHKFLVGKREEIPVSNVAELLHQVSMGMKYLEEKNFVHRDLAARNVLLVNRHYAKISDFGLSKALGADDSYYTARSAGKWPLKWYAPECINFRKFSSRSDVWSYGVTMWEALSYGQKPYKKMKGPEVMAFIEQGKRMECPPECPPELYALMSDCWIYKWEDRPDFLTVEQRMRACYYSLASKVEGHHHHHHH
Summary of the method: (§1)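 Here, phosphorylation of a biotin-tagged peptide was sensed by proximity of streptavidin donor and antibody-bearing acceptor beads. Test compounds covered 8 concentrations by 1:3 serial dilution of 20 mM DMSO stocks.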

B-Raf = target: T6, B-Raf (Homo sapiens, UniProt P15056); test: AlphaScreen kinase assay, B-Raf; conditions: read-out: IC50, activity toward kinase B-Raf
T6 construct: purchased Upstate Biotechnology

B-Raf V600E = target: T7, B-Raf V600E (Homo sapiens, UniProt P15056, V600E); test: AlphaScreen kinase assay, B-Raf V600E; conditions: read-out: IC50, activity toward kinase B-Raf V600E
T7 construct: P4254. pFastBacBD-CDC37 BRAF D437-K722-X, V600E; His6 with pFastBac HT leader (TEV site) (N); made in house; host or cells: Sf9 (baculovirus; chaperone CDC37 co-expressed)

Btk = target: T8, Btk (Homo sapiens, UniProt Q06187); test: Z'-Lyte FRET kinase assay (Invitrogen), Btk; conditions: read-out: IC50, activity toward kinase Btk
T8 construct: purchased Invitrogen (assay run by Invitrogen)

c-Raf-1 = target: T9, c-Raf-1 (Homo sapiens, UniProt P04049); test: AlphaScreen kinase assay, c-Raf-1; conditions: read-out: IC50, activity toward kinase c-Raf-1
T9 construct: purchased Upstate Biotechnology

Fak = target: T10, Fak (Homo sapiens, UniProt Q05397); test: AlphaScreen kinase assay, Fak; conditions: read-out: IC50, activity toward kinase Fak
T10 construct: P1358.pFastBacHtb FAK S411-Q686-X; His6 with pFastBacHTb leader (TEV site) (N); made in house; host or cells: Sf9 (baculovirus)
T10 sequence (Q05397 411-686): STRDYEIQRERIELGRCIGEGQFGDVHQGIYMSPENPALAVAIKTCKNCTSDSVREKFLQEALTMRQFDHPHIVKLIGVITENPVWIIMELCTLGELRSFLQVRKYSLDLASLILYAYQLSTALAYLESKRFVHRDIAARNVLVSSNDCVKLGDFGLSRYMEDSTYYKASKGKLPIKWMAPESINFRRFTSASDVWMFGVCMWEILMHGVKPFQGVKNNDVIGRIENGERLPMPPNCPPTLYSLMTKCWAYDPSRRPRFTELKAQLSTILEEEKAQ

FGFR1 = target: T11, FGFR1 (Homo sapiens, UniProt P11362, C488A/C584S); test: AlphaScreen kinase assay, FGFR1; conditions: read-out: IC50, activity toward kinase FGFR
T11 construct: P1351.pET N6 BI-PTP FGFR A458-E765-X C488A, C584S; made in house; host or cells: E. coli (PTP1B co-expressed)
T11 sequence (P11362 458-765 C488A/C584S): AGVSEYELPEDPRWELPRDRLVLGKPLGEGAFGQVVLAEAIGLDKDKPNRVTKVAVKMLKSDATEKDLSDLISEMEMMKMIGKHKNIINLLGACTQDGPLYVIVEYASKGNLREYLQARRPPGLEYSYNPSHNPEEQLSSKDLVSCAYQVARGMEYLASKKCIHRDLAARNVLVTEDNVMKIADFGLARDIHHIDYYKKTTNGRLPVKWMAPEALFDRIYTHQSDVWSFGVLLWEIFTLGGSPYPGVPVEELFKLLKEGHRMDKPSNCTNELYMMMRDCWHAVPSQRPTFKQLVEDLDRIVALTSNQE

Flt1 = target: T12, Flt1 (Homo sapiens, UniProt P17948); test: AlphaScreen kinase assay, Flt1; conditions: read-out: IC50, activity toward kinase Flt1
T12 construct: P1826.pETN6 BI-PTP FLT1 M799-D1165-X WT; His6 (N); made in house; host or cells: E. coli (PTP1B co-expressed)
T12 sequence (P17948 with tags, fused parts or gaps): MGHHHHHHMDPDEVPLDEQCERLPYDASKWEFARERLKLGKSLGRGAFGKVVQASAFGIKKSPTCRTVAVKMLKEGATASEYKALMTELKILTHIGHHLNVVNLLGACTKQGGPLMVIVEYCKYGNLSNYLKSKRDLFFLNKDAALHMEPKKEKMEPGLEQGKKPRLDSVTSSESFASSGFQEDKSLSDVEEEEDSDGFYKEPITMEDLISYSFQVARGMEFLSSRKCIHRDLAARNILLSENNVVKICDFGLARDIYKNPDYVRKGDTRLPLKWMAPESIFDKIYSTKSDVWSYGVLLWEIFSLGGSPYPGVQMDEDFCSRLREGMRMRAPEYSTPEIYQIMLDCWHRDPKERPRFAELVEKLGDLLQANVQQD

Fms = target: T13, Fms (Homo sapiens, UniProt P07333); test: AlphaScreen kinase assay, Fms; conditions: read-out: IC50, activity toward kinase Fms
T13 construct: purchased Upstate Biotechnology

Jnk1 = target: T14, Jnk1 (Homo sapiens, UniProt P45983); test: AlphaScreen kinase assay, Jnk1; conditions: read-out: IC50, activity toward kinase Jnk1
T14 construct: purchased Upstate Biotechnology

Jnk3 = target: T15, Jnk3 (Homo sapiens, UniProt P53779); test: AlphaScreen kinase assay, Jnk3; conditions: read-out: IC50, activity toward kinase Jnk3
T15 construct: purchased Upstate Biotechnology
T15 sequence (P53779 whole entry): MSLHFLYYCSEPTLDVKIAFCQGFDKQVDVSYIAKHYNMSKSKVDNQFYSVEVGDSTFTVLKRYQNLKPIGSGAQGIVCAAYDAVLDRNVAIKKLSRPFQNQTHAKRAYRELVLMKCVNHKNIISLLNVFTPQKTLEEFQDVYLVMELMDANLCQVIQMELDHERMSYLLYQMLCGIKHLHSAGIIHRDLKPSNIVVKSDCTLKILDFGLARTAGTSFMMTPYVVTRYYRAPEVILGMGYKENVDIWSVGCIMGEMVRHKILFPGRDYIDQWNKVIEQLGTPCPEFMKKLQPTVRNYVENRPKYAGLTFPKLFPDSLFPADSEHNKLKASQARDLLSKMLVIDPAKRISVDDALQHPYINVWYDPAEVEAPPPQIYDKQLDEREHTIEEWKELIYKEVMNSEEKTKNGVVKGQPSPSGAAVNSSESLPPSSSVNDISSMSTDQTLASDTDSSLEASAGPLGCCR

Pyk2 = target: T16, Pyk2 (Homo sapiens, UniProt Q14289); test: AlphaScreen kinase assay, Pyk2; conditions: read-out: IC50, activity toward kinase Pyk2
T16 construct: purchased Upstate Biotechnology
T16 sequence (Q14289 whole entry): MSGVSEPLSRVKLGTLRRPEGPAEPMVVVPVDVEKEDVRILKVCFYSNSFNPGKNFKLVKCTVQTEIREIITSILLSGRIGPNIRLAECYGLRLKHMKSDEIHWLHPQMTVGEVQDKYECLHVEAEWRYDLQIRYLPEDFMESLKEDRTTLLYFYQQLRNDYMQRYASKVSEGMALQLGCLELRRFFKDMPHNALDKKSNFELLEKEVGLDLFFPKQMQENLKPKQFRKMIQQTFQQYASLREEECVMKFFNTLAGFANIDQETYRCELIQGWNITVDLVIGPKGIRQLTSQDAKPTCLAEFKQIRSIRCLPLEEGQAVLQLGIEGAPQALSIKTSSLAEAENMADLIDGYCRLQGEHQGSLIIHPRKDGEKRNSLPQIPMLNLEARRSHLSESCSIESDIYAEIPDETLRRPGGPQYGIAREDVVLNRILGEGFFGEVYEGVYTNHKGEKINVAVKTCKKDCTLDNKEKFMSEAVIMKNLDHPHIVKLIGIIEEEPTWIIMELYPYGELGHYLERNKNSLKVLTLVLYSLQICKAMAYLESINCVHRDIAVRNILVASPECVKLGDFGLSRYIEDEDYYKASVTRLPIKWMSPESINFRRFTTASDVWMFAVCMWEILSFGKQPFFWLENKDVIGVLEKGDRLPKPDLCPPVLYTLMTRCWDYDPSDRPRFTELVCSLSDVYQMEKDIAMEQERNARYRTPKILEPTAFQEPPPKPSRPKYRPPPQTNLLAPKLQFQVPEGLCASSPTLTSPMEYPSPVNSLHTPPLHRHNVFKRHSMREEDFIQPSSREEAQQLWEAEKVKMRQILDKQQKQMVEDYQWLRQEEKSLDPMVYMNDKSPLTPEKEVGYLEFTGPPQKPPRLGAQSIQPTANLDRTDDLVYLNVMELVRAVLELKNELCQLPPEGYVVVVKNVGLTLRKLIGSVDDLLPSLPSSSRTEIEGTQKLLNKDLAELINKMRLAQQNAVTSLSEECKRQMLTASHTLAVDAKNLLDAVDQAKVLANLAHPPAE

Src = target: T17, Src (Homo sapiens, UniProt P12931); test: AlphaScreen kinase assay, Src; conditions: read-out: IC50, activity toward kinase Src
T17 construct: P1144. pET-N6 BI-PTP SRC V86-L536-X; made in house

Yes = target: T18, Yes (Homo sapiens, UniProt P07947); test: Z'-Lyte FRET kinase assay (Invitrogen), Yes; conditions: read-out: IC50, activity toward kinase Yes
T18 construct: purchased Invitrogen (Carlsbad, Calif.), screening service
Summary of the method: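 Serially diluted compound (final 1% DMSO) incubated 1 h at room temperature with kinase, 2 μM FRET peptide and 10 μM ATP in pH 7.5 HEPES buffer. Site-specific protease then cleaves unphosphorylated peptide (1 h); inhibition read as increased coumarin-to-fluorescein emission ratio.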

Akt3 = Akt3 (Homo sapiens, UniProt Q9Y243); test: AlphaScreen kinase assay, Akt3; conditions: read-out: IC50, activity toward kinase Akt3
Summary of the method: as §1

Jnk2 = target: T19, Jnk2 (Homo sapiens, UniProt P45984); test: AlphaScreen kinase assay, Jnk2; conditions: read-out: IC50, activity toward kinase Jnk2
T19 construct: purchased Roche Protein Expression Group (Indianapolis, IN)
T19 sequence (P45984 whole entry): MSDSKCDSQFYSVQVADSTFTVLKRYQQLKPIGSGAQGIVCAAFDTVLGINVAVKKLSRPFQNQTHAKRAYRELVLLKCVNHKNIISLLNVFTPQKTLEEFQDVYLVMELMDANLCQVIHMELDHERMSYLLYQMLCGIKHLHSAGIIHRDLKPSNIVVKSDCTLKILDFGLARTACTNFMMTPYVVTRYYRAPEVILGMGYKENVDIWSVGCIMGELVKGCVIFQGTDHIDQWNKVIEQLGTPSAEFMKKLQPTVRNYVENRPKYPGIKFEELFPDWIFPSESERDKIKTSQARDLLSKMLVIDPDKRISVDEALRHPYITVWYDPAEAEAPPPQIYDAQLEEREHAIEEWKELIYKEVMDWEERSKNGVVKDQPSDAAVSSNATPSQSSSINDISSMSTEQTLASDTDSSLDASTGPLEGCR
Summary of the method: as §1

Ret = target: T20, Ret (Homo sapiens, UniProt P07949); test: AlphaScreen kinase assay, Ret; conditions: read-out: IC50, activity toward kinase Ret
T20 construct: P1378.pET-SF BI-PTP RET H661-R1012 HIS; made in house
T20 sequence (P07949 with tags, fused parts or gaps): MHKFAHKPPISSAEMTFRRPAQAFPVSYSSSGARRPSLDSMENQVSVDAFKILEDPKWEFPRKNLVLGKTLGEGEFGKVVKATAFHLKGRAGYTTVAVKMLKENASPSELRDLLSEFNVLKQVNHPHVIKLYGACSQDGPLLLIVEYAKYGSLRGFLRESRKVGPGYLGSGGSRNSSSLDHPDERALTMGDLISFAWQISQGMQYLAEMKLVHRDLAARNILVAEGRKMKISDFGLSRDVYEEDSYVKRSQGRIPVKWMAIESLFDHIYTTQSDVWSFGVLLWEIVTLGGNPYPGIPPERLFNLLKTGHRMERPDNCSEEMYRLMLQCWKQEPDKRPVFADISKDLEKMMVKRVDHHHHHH

MAP4K4 = MAP4K4 (Homo sapiens, UniProt O95819); test: AlphaScreen kinase assay, MAP4K4; conditions: read-out: IC50, activity toward kinase MAP4K4

Measured: IC50

T1 sequence (P35968 20-1356): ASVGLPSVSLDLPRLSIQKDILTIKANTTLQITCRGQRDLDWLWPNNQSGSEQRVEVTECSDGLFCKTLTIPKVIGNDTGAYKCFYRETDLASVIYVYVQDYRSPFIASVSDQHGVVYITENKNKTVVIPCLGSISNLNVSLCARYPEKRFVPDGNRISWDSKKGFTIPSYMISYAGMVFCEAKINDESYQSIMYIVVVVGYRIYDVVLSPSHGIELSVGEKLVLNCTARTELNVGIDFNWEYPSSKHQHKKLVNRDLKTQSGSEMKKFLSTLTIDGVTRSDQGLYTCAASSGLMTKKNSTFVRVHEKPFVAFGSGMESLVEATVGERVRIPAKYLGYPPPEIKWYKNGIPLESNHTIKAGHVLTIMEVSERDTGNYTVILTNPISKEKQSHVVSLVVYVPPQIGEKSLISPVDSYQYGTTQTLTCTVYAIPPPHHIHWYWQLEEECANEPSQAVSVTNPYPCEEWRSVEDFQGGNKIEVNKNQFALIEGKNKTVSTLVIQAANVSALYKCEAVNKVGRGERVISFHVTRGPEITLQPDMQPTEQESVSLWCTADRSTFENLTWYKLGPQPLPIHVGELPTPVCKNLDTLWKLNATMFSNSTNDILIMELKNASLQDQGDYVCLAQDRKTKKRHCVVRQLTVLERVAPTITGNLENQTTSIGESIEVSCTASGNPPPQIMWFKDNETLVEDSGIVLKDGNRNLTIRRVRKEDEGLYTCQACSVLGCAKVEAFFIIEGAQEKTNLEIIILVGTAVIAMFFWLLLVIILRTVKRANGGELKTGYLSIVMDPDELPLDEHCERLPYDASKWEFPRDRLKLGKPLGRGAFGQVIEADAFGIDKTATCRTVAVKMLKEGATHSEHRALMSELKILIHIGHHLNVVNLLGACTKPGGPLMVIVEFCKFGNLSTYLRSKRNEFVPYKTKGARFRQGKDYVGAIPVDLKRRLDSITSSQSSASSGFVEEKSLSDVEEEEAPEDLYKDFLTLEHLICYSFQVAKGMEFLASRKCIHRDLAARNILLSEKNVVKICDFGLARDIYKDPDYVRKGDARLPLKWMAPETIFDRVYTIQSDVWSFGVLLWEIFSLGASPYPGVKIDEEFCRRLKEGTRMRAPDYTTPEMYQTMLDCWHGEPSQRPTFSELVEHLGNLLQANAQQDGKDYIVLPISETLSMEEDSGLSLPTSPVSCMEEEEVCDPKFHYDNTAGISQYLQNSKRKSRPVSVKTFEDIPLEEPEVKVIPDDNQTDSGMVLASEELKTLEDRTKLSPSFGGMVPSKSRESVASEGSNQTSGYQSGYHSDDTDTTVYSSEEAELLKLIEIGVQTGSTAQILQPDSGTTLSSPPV

CC(=O)Nc1cccc(-c2ccnc3[nH]ccc23)c1 [Compound P-0030]
≤ 10 µM: Kdr | Kit | PKC theta | Stk6 | Zap70

O=C(c1ccc(O)cc1Cl)c1c[nH]c2ncc(-c3cccs3)cc12 [Compound P-0112]
not listed: Stk6 | Zap70 | Jnk2 | Ret | MAP4K4
≤ 10 µM: all other assays above

COc1ccc(-c2c[nH]c3ncccc23)cc1OC [Compound P-0238]
≤ 10 µM: Jnk2 | Jnk3 | PKC theta

O=C1Nc2ccccc2/C1=C/c1c[nH]c2ncccc12 [Compound P-0069]
≤ 10 µM: Jnk2 | Kdr | Kit | PKC theta | Pyk2 | Ret | Stk6 | MAP4K4
